Source: patent US20170269060A1, “Assays and Compounds to Treat Kidney Diseases” (Rush University Medical Center, priority 2014, published 2017)

Test system: murine podocytes
Test: Primary HCS screen of chemical library, cell roundness Z score, PAN injury
Assay type: cell-based
Conditions: PAN 16 μg/ml, 48 hours; Z-score cutoff ≦−1.28
Procedure: Screening of chemical libraries, which include the MicroSource Spectrum collection (MicroSource Discovery Systems, Inc., Gaylorsville, C T, 2000 compounds) and Enzo kinase inhibitor array (Enzo Life Sciences, Farmingdale, N.Y., 80 compounds), Sigma, Millipore, Tocris and Cayman (41 compounds), was performed using multiwall plates. Podocytes cultured in multiwall plates were used in these assays. 100 nL of each compound, also in multiwall plates (at a stock concentration of 1 mM to 10 mM in DMSO), was added to each well of a podocyte containing multiwall plate using the Perkin Elmer Janus automated workstation with the help of a 96-pin or 384-pin pin tool (100 nL, PerkinElmer). The compounds were added in the absence or presence of podocyte damaging agent (such as PAN). The plates containing the compounds were subsequently placed in tissue culture incubators and cells were further cultured for 1-72 h at 37° C. A compound that decreased PAN damaged was identified by quantifying the changes in at least one of the following parameters: cell morphology, cell roundedness, F-actin intensity, number of focal adhesions, intensity or size of focal adhesions, length of actin fibers, size of actin fibers, percent damaged or percent healthy cells etc. In certain cases, hits were validated by acquiring a fresh batch of the compound from commercial sources and performing dose-response curves. Images from the primary screen were quantified for cell morphology parameter and were normalized by calculating z-score (z) for each test compound, to compensate for any plate-to-plate variability. (Wiggins, Kidney International, 2007) z was calculated for each of the test compounds using the formula: […]
where x is the raw measured value with each compound, μ is the mean of all measured raw values across a plate and a is the standard deviation of the measurements. A z-score of […], corresponding to 90% population under the curve, was used as a cutoff to identify primary hits in the assay.
To identify small molecules that protect podocytes from PAN injury, a chemical library of 2121 pharmacologically active compounds was screened. Podocytes were treated with compounds from the chemical library in the presence of PAN (16 μg/ml) at 37° C. for 48 hours. The assay plates also contained eight positive (PAN and MZR treatment) and eight negative (PAN treatment) control wells. Wells were imaged and analyzed, and the mean cell roundness per cell was calculated for each well. Mean cell roundness was normalized using plate-based positive and negative controls, and a Z score for the change in cell morphology on treatment with each compound (SD away from the plate mean) was calculated. The results from the screen are presented as a graph in FIG. 7A. Wells with nuclei counts. […] Primary hits (compounds that protected podocytes from PAN damage) were identified from the assay using a Z-score cutoff of ≦−1.28 corresponding to the 10% population on one side of the bell-shaped curve. […] Given that our assay is image based, the images from all initial hits were visually inspected manually, which eliminated 10 compounds as nonhits. […] The identified list of primary hit compounds included three Rho kinase inhibitors (Y27632, GSK 429286, and Thiazovivin) and a p38 kinase inhibitor (SB 203580). […] Next, to validate the hit compounds identified from our screen, selected primary hits were reanalyzed using independently obtained powder forms of the compounds.

In the case of `O=S(=O)(NCC1CC1)c1ccc(Nc2nccc(N3CCCc4cc(O)ccc43)n2)cc1` [Pyrintegrin], the “primary hit (protects podocytes from PAN damage)” value is reported as “top primary hit”.
